# Data published in article PMC5749684, “Tetrahydrocarbazoles are a novel class of potent P-type ATPase inhibitors with antifungal activity” (PLoS ONE, 2018).
# Tests used:
# Candida albicans SC5314 = assay: Fungal growth inhibition, C. albicans SC5314; assay type: cell-based; conditions: MIC defined as 50% growth inhibition, 24 h, n = 3–6
# Source text: (§1) Fungal isolates were purchased from American Type Culture Collection, except for C. glabrata strain Cg003, which was kindly provided by Julius Subik, Comenius University in Bratislava, Slovak Republic. Cg003 is a clinical isolate, characterized to be resistant to fluconazole and itraconazole due to overexpression of the multidrug resistance efflux pumps Cdr1p and Cdr2p. Saccharomyces cerevisiae (ATCC 9763), Candida albicans (ATCC 90028), Candida albicans (SC5314), Candida glabrata (ATCC 90030), Candida glabrata (Cg003) and Candida krusei (ATCC 6258) were grown in Sabouraud broth (40 g/L D-glucose, 10 g/L peptone, pH 5.6) or YPD (10 g/L yeast extract, 20 g/L Bacto-peptone, 20 g/L glucose) medium to mid log phase, aliquoted into 20% (v/v) glycerol and cryopreserved as stocks at -80°C. For each growth assay, cells from these stocks were diluted in sterile water to OD600 = 0.025, which corresponds to a final starting inoculum of 0.5–2.5 x 10^5 CFU/mL. Growth assays were carried out by pipetting 3 μL compound dissolved in DMSO, 100 μL cell suspension and 97 μL 2 x RPMI media (20.8 g/L RPMI-1640 (Sigma-Aldrich catalog number R6504) 330 mM MOPS, 36 g/L glucose) into a microtiter plate and incubating for 24 h at 34°C, followed by OD measurement at 490 nm. The minimum inhibitory concentration (MIC) was defined as 50% growth inhibition of the microorganism as this measurement best represented the antifungal activity of the compounds. Standard errors were typically below 5%.
# [1] = test system: Candida glabrata ATCC 90030; assay: Fungal growth inhibition, C. glabrata ATCC 90030; assay type: cell-based; conditions: Nakaseomyces glabratus, ATCC90030; MIC defined as 50% growth inhibition, 24 h, n = 3–6
# Source text: as §1
# S. cerevisiae cells = assay: Membrane potential study (DiBAC4(3)); assay type: cell-based, Saccharomyces cerevisiae; conditions: 10 μM, 30 minutes exposure, compared to DMSO
# Experimental: S. cerevisiae cells were grown to mid-log phase, pelleted at 2,000 x g for 2 minutes and washed twice in buffer A (100 mM MOPS and 1 mM KCl adjusted with Trizma base to pH 7.0). Cells were then resuspended in buffer A to an OD600 of 0.2. For each well 50 μL of buffer A with 3.3 μg/mL propidium iodide (PI) (Thermo Fisher Scientific, catalog number P1304MP) and 1 μg/mL DiBAC4(3) (Sigma-Aldrich, catalog number D8189)) was mixed with 50 μL S. cerevisiae cell suspension and transferred to a 96 well plate containing 1 μL of inhibitor (in DMSO). A lysis control was performed with Reagent Y100 (ChemoMetec). Five thousand cells were measured per experiment with an exposure time of 1000 ms using a NucleoCounter NC-3000 (ChemoMetec). Dark field was used as the masking channel to select the yeast cells, and the DiBAC4(3) ([…]) and PI (ex 630 nm, em 740/60 nm) channels were used to measure the membrane potential and membrane integrity, respectively. Only cells with a pixel size of 10–40 were included in the analysis, to avoid analysis of non-cell artifacts.
# [2] = test system: yeasts Saccharomyces cerevisiae, Candida albicans, Candida krusei and Candida glabrata; assay: Fungal growth inhibition; assay type: cell-based; conditions: species not given; for MIC: antifungal activity
# Source text: as §1
# [3] = test system: C. albicans (SC5314) cells; assay: Time-kill assay; assay type: cell-based, Candida albicans; conditions: for Reduction in CFU after 3 h exposure: 20 μM, compared to DMSO treated controls; for Fungicidal or fungistatic activity in time-kill (in words): AMB 0.54 μM, VRC 2.8 μM, 6 and 8 20 μM
# Experimental: C. albicans (SC5314) cells (1 x 10^5 CFU/mL) were incubated in 10 mL RPMI-1640 media at 30°C with gentle agitation (150 rpm) in the presence of amphotericin B (0.5 μM), voriconazole (2.8 μM) or tetrahydrocarbazole compound (20 μM). At the indicated time points (0, 3, 6, and 24 h), a 100 μL aliquot was removed, serially diluted (10 fold) in saline (0.9% NaCl), and 30 μL aliquots were spread on YPD agar. CFU were counted after incubation at 30°C for 48 h. C. albicans cells treated with DMSO (1%, v/v) served as a control. 50 CFU/mL was selected as the lower limit of quantitation.
# C. albicans cells = assay: Post-antifungal effect determination; assay type: cell-based, Candida albicans; conditions: 1 h exposure of C. albicans; AMB 0.54 μM, VRC 2.8 μM, 6 and 8 20 μM
# Experimental: The post-antifungal effect (PAFE) of antifungal drugs on C. albicans was determined as described by others, with modifications. Briefly, 2 × 10^6 CFU/mL C. albicans cells were incubated in 1 mL RPMI-1640 media for 1 h at 30°C with gentle agitation in the presence of amphotericin B (0.54 μM), voriconazole (2.8 μM) or tetrahydrocarbazole compound (20 μM). Cells were subsequently washed in RPMI media 3 times by centrifugation (3 minutes, 5,000 x g) and finally re-suspended in 1 mL fresh RPMI medium and incubated at 30°C for 24 h. At various time intervals, a 100 μL aliquot was removed, serially diluted (10-fold) in saline (0.9% NaCl), and 30 μL aliquots were spread on YPD agar. The agar plates were incubated at 30°C for 48 h and the number of CFU/mL of culture was determined. C. albicans cells treated with DMSO (1%, v/v) served as a control. The number of CFU/mL obtained at specified time intervals was plotted against time (h) following compound removal. An increase in the CFU/mL of culture signifies growth and multiplication of yeast cells. The duration required for the antifungal drug-treated cells to recover from the inhibitory effect of the drug as indicated by an increase in CFU/mL of culture is defined as the PAFE.
Compound,MIC (Candida albicans SC5314),MIC [1],"DiBAC4(3) fluorescence signal, membrane depolarization (in words) (S. cerevisiae cells)",Antifungal activity (in words) [2],Reduction in CFU after 3 h exposure [3],Fungicidal or fungistatic activity in time-kill (in words) [3],Post-antifungal effect (PAFE) (C. albicans cells),MIC [2]
NC1CCCc2c1[nH]c1cc(OC(F)(F)F)ccc21 (stereo not shown) [Compound 4],100 ± 43 µM,23.7 µM,No significant differences,weak antifungal activity,,,,
CN1CCC(NC2CCCc3c2[nH]c2cc(OC(F)(F)F)ccc32)CC1 (stereo not shown) [Compound 5],150 µM,46.5 ± 27 µM,No significant differences,weak antifungal activity,,,,
FC(F)(F)Oc1ccc2c3c([nH]c2c1)C(NCc1ccc(Cl)cc1)CCC3 (stereo not shown) [Compound 6],7.5 µM,12.1 ± 7.9 µM,,,> 99%,fungistatic activity after 24 h of incubation,5 h,
FC(F)(F)Oc1ccc2c3c([nH]c2c1)C(NCc1ccc(Br)cc1)CCC3 (stereo not shown) [Compound 7],15 µM,15 µM,,,,,,
FC(F)(F)Oc1ccc2c3c([nH]c2c1)C(NCCOc1ccc(Cl)cc1)CCC3 (stereo not shown) [Compound 8],7.5 µM,5.3 ± 2.7 µM,,,> 99%,fungistatic activity after 24 h of incubation,5 h,
FC(F)(F)Oc1ccc2[nH]c3c(c2c1)CCCC3NCc1ccc(-c2ccccn2)cc1 (stereo not shown) [Compound 9],7.5 µM,7.5 µM,,,,,,
Clc1ccc2[nH]c3c(c2c1)CCCC3NCc1ccc(-c2ccccc2)cc1 (stereo not shown) [Compound 10],6.8 ± 4.6 µM,21 ± 6.6 µM,slight increase,,,,,
Cn1c2c(c3cc(Cl)ccc31)CCCC2NCc1ccc(-c2ccccc2)cc1 (stereo not shown) [Compound 11],> 20 µM,> 20 µM,,,,,,> 20 µM
CN(Cc1ccc(-c2ccccc2)cc1)C1CCCc2c1[nH]c1ccc(Cl)cc21 (stereo not shown) [Compound 12],> 20 µM,> 20 µM,,,,,,> 20 µM
